Values quoted from earlier work as cited in US6514490B2, “Compositions containing an antifungal and a cationic agent” (Janssen Pharmaceutica N.V., priority 1997, dated 2003).

Conditions: prior art medicated shampoo, anti-dandruff treatment

Compound | number of patients not responding to particular medicated shampoo
CC(=O)N1CCN(c2ccc(OCC3COC(Cn4ccnc4)(c4ccc(Cl)cc4Cl)O3)cc2)CC1 (centres unmarked) [ketoconazole] | up to 30%
S=[Se]=S [selenium sulfide] | up to 40%
